Experimental data published in patent US20260021119A1, “TETRACYCLINE DERIVATIVES” (ICM (INSTITUT DU CERVEAU ET DE LA MOELLE ÉPINIÈRE), priority 2022, published 2026).

Assays:
[1] = system: primary mouse microglial cells (TNF-a release, LPS 10 ng/ml); assay: Anti-inflammatory effect in LPS-activated primary mouse microglial cells, TNF-a ELISA; format: cell-based
Experimental: Primary mouse microglial cells cultivated in Dulbecco's Modified Eagle Medium (DMEM) with no serum and 15 mM Hepes were challenged with lipopolysaccharide (LPS, 10 ng/ml) for 24 hours in the presence or not of the compound of formula (Ib) according to the present invention at concentrations of 1 μM, 5 μM, 25 μM and 50 μM. After that, the release of the proinflammatory cytokine TNF-a was estimated with an ELISA kit (ThermoFisher Scientific).

dopamine neurons = assay: Neuroprotection in midbrain mouse cultures, survival of TH+ dopamine neurons; format: cell-based; details: 0.5 μM, 1 μM and 5 μM, div14
Experimental: (§1) Midbrain mouse cultures were subjected to a maturation step until day in vitro (div) 7, and then gradually exposed to phenol red formulated DMEM/Nutrient mixture F12 Ham supplemented with 20 μg/mL of insulin and 2 μM of the NMDA receptor blocker MK-801. Under these conditions, which favor low-level, sustained oxidative insults, and lead ultimately to dopamine cell death, treatments with the compound of formula (Ib) according to the invention (at a concentration ranging from 0.1 to 5 μM) were performed or not, as well as treatments with the reference tetracycline antibiotic doxycycline (DOX; 10 μM) and the glycoprotein apotransferrin (APO; 100 μg/mL), the latter being used as reference neuroprotectant. At div14, cultures were fixed, and then processed for tyrosine hydroxylase (TH) immunocytochemistry to estimate the survival of dopamine neurons.
as §1, with “(Ic)” for “(Ib)”, “with” for “with the reference tetracycline antibiotic doxycycline (DOX; 10 μM) and”

[2] = system: p-tau (phosphorylated tau protein at Ser202, Thr205 residues); assay: p-tau (AT8) expression in cultured cortical neurons under oxidative stress; format: cell-based, mouse; parameters: key to Reduction of the % of p-tau+ somas: a favorable response, synonymous with a decrease in the number of p-tau+ cell bodies; ++: a favorable response, synonymous with a decrease in the number of p-tau+ cell bodies; +++=reference level; an unfavorable response is represented by a sign “−”, synonymous with an elevation of the number of p-tau+ cell bodies; overexpression of p-tau in cortical cell bodies: dose or concentration left out as unconfirmed
Experimental: A culture model of cortical neurons from mouse embryonic brain was used, in which neuronal cells were subjected to a maturation step until day in vitro (div) 7, before being gradually exposed to phenol red formulated DMEM/Nutrient mixture F12 Ham supplemented with 20 μg/mL of insulin, and 2 μM of the NMDA receptor blocker MK-801 (DF12i).
Precisely, after 4 days of exposure to DF12i, between 10-15% of surviving neurons show a very strong AT8 immunosignal in their somas while only 1 to 1.5% of neuronal cell bodies are found immunopositive under conditions where oxidative stress is repressed by treatment with bovine apotransferrin (APO; 100 µg/mL, Sigma Aldrich), a glycoprotein with iron chelating properties. Likewise, overexpression of p-tau in cortical cell bodies is reduced by the two non-antibiotic tetracyclines compound of formula (C) ([…]) and compound of formula (Ib) ([…]): see the following Table: […]

4 test bacterial strains = assay: Antimicrobial effects, summary over the 4 test bacterial strains (Example 9); format: cell-based
Text: (§2) Bacterial strains used in this study were: S. aureus (ATCC25923), E. coli (ATCC28922), E. faecalis (ATCC29212) and P. aeruginosa (PA01). The minimum inhibitory concentrations (MICs) were estimated using standardized protocols (Mawabo et al, J. Infect. Public Health 2015).

S. aureus ATCC 25923 = assay: MIC, standardized protocols (Example 9); format: cell-based; details: Staphylococcus aureus, ATCC25923
Text: as §2

P. aeruginosa PA01 = assay: MIC, standardized protocols (Example 9); format: cell-based; details: Pseudomonas aeruginosa
Text: as §2

E. faecalis ATCC 29212 = assay: MIC, standardized protocols (Example 9); format: cell-based; details: Enterococcus faecalis, ATCC29212
Text: as §2

E. coli ATCC 28922 = assay: MIC, standardized protocols (Example 9); format: cell-based; details: Escherichia coli, ATCC28922
Text: as §2

bacteria = assay: Antimicrobial effect against bacteria (Example 13, no method given); format: cell-based

Structure (SMILES): C[C@@]1(O)c2cccc(O)c2C(=O)C2=C(O)C3C(=O)C(C(N)=O)=C(O)C[C@@H]3[C@@H](O)[C@@H]21 (stereo partly drawn) [Compound of formula (Ib), (4aS,5R,5aR,6S)-3,5,6,10,12-pentahydroxy-6-methyl-1,11-dioxo-1,4,4a,5,5a,6,11,12a-octahydrotetracene-2-carboxamide]
- reduction of proinflammatory effects of LPS (TNF-a release) ([1]; between 5 μM to 50 μM, LPS 10 ng/ml, 24 hours): reduces significantly
- neuroprotective effect (survival of dopamine neurons) (dopamine neurons): highly protective
- overexpression of p-tau in cortical cell bodies [2]: reduced
- Reduction of the % of p-tau+ somas ([2]; compounds 3 μM, APO 100 μg/mL, mouse cortical cultures exposed div 7-11 to DF12i): +++
- antimicrobial effects against the 4 test bacterial strains (4 test bacterial strains): effective against none of them
- MIC (S. aureus ATCC 25923): 100 µM
- MIC (P. aeruginosa PA01): > 200 µM
- MIC (E. faecalis ATCC 29212): 100 µM
- MIC (E. coli ATCC 28922): > 200 µM

Structure (SMILES): C[C@@]1(O)c2cccc(O)c2C(=O)C2=C(O)C3C(=O)C(C(N)=O)=C(O)CC3CC21 (stereo partly drawn) [Compound of formula (Ic)]
- anti-inflammatory effects vis-à-vis 10 ng/mL LPS ([1]; 5 μM, 25 μM and 50 μM): has anti-inflammatory effects
- neuroprotective effect (survival of dopamine neurons) (dopamine neurons): highly protective
- antimicrobial effect against bacteria (bacteria): does not show any antimicrobial effect
